Experimental data published in ChEMBL document CHEMBL3745669, “Isolation of bioactive biphenyl compounds from the twigs of Chaenomeles sinensis” (Bioorg Med Chem Lett, 2016).

What was measured:
BV-2 = experiment: Anti-neuroinflammatory activity in mouse BV2 cells assessed as inhibition of LPS-induced NO production after 24 hrs by Griess assay; format: functional, cell-based; settings: BV-2, 24 h
[1] = Cytotoxicity against rat C6 cells assessed as viable cells at 20 uM by MTT assay; format: cell-based; settings: read-out: Activity
C6 = experiment: Stimulation of NGF secretion in rat C6 cells at 20 uM after 24 hrs by ELISA; format: functional
[2] = Cytotoxicity against mouse BV2 cells assessed as viable cells at 20 uM by MTT assay; format: cell-based, BV-2; settings: read-out: Activity
A549 = experiment: Cytotoxicity against human A549 cells after 48 hrs by SRB assay; format: functional, cell-based; settings: A549, 48 h
[3] = Cytotoxicity against human SKOV3 cells after 48 hrs by SRB assay; format: functional, cell-based; settings: SK-OV-3, 48 h
[4] = Cytotoxicity against human HCT15 cells after 48 hrs by SRB assay; format: functional, cell-based; settings: HCT-15, 48 h
SK-MEL-2 = experiment: Cytotoxicity against human SK-MEL-2 cells after 48 hrs by SRB assay; format: functional, cell-based; settings: SK-MEL-2, 48 h

SMILES	IC50 (BV-2) [µM]	viability at 20 µM [1] [%]	Activity (C6) [%]	viability at 20 µM [2] [%]	IC50 (A549) [µM]	IC50 [3] [µM]	IC50 [4] [µM]	IC50 (SK-MEL-2) [µM]
COc1cc(-c2ccccc2)cc(OC)c1O [AUCUPARIN]	50.1	117	125.76	126	–	–	–	–
COc1cc([C@@H]2c3cc4c(cc3[C@@H](O[C@@H]3O[C@@H]5CO[C@@H](C)O[C@H]5[C@H](O)[C@H]3O)[C@H]3COC(=O)[C@H]23)OCO4)cc(OC)c1O [ETOPOSIDE]	–	–	–	–	1.74	1.96	2.95	1.33
COc1cc(-c2ccccc2)cc(Oc2c(OC)cc([C@@H](O)[C@H](O)CO)cc2OC)c1O [BERBEKORIN A]	49.3	119	155.02	116	4.12	4.03	1.96	4.49
CCCCC/C=C/C(=O)CCc1ccc(O)c(OC)c1 [SHOGAOL]	–	110	158.18	–	–	–	–	–
COc1ccc(-c2cc(OC)c(O)c(Oc3c(OC)cc([C@@H](O)[C@H](O)CO)cc3OC)c2)c(OC)c1	48.4	115	125.81	132	12.7	29.5	27.3	16.3

Continued, in another order:

IC50 (BV-2) [µM]	SMILES	viability at 20 µM [1] [%]	Activity (C6) [%]	viability at 20 µM [2] [%]	IC50 (A549) [µM]	IC50 [3] [µM]	IC50 [4] [µM]	IC50 (SK-MEL-2) [µM]
38.1	COc1cc(-c2ccccc2O)cc(OC)c1O	119	137.33	118	–	–	–	–
15.8	COc1ccc2c(oc3c(OC)c(OC)c(O)cc32)c1O	113	186.49	198	> 30	19.3	> 30	23.5
20.5	CNC(=N)NCCC[C@H](N)C(=O)O [TILARGININE]	–	–	100	–	–	–	–
39.6	COc1ccc(-c2cc(OC)c(O)c(OC)c2)c(OC)c1	119	164.56	129	5.18	7.84	7.81	6.94
28.1	COc1ccccc1-c1cc(OC)c(O)c(OC)c1	118	152.86	138	–	–	–	–
